Test results reported in publication PMC2898572 (Journal of neurochemistry, 2009).
Values joined by “and” are separate entries in the source; they are usually repeats but may differ in a detail not shown here. Equal entries are not always repeated.

Columns and labels:
[1] = system: wild-type and Pept2 null mice; assay: Hot-plate test; format: in vivo; conditions: for ED50: icv
rat PEPT2 = conditions: read-out: Ki (PEPT2 inhibitor); LLC-PK1 cells stably transfected with rat PEPT2; ref Terada et al. 2000; cited from earlier work
[2] = system: opioid peptide transport system; conditions: SK-N-SH cells; ref Thakker et al. 2008; cited from earlier work
PEPT2 = conditions: rat choroid plexus; concentrations 1,000 times in excess; ref Teuscher et al. 2001; cited from earlier work

Compound	effect on the MPE of L-KTP ([1]; bestatin 160 nmol icv with 4 nmol L-KTP, Pept2 null mice, p=0.2931)	Ki (rat PEPT2) [µM]	stimulation of opioid peptide transport system [2]	effect on the uptake of GlySar (PEPT2)	maximum analgesia ([1]; 100 nmol icv, both genotypes) [% MPE]	duration of response to 100 nmol dose ([1]; 100 nmol icv, both genotypes, 40 min experiment)	ED50 ([1]; Pept2 null mice, response at 5 min, estimate ± standard error) [nmol]	time of maximum analgesia ([1]; after icv injection, both genotypes) [min]	ED50 ([1]; both genotypes (wild-type and Pept2 null)) [nmol]	ED50 ([1]; wild-type mice, response at 5 min, estimate ± standard error)	difference in ED50 between genotypes ([1]; wild-type vs Pept2 null)
CC(C)C[C@H](NC(=O)[C@@H](O)[C@H](N)Cc1ccccc1)C(=O)O [bestatin]	little effect	18	–	–	–	–	–	–	–	–	–
L-Tyr-D-Arg [D-KTP]	–	–	little stimulation	no effect	100	fully analgesic throughout the 40 min experiment	9.1 ± 0.8	5	9 to 10	10.3 nmol and 10.3 ± 1.0 nmol	~ 10%
